Measurements reported in patent publication US10081609B2, “Compounds for inducing proliferation and differentiation of cells, and methods of use thereof” (The Broad Institute, Inc., priority 2013, dated 2018).
Converted amounts (≈) assume the structure as drawn. “And” between values parts separate entries of the source, which are not always exact repeats. Equal entries are not always repeated. Where two headings read alike, the source gives them in different places.

Legend:
Protein binding - Human = assay type: in vitro ADME
Description: (§1) Selected compounds of the invention were evaluated for physico-chemical properties, including solubility, microsomal stability, protein binding and plasma stability (Table 2).
(§2) Selected compounds of the invention were evaluated for physico-chemical properties, including solubility, microsomal stability, protein binding and plasma stability (Table 3).

[1] = Solubility in PBS with 1% DMSO; assay type: physicochemical
Description: as §1, §2

[2] = Microsomal stability - Human; assay type: in vitro ADME; settings: for Microsomal stability No NADPH: non-enzymatic microsomal mechanisms only; for Microsomal stability Average: enzymatic and non-enzymatic microsomal mechanisms
Description: as §1, §2

Plasma stability - Human = assay type: in vitro ADME
Description: as §1, §2

[3] = tested on: human primary hepatocytes; test: High-throughput liver platform, primary screening: hepatocyte proliferation by automated high-content imaging (hepatocyte nuclei numbers); assay type: cell-based; settings: for hit class in the high-throughput liver platform: human primary hepatocytes
Description: In order to avoid species-specific differences and cell line mutations, the screen was conducted with human primary hepatocytes. Traditionally, chemical screening on such cells has been hindered by their availability in large quantities as well as their rapid loss of viability and phenotype in vitro. Recent advances in cryopreservation technologies allowed enough primary human cells to be stored for screening; these cells are maintained through co-cultivation with non-parenchymal cells. Co-cultures of primary human hepatocytes with murine embryonic J2-3T3 fibroblasts were recently shown to maintain normal hepatocyte phenotype for weeks. These in vitro platforms consisted of hepatocytes surrounded by a co-planar population of fibroblasts. While sufficient for stabilizing hepatocyte functions in vitro, such platforms may limit normal hepatocyte expansion due to contact inhibition. Thus, for this screen, a sparse population of hepatocytes was co-cultivated on top of a confluent feeder layer of J2-3T3 fibroblasts within 384-well plates (FIG. 1A top). This screening platform stabilized hepatocyte phenotypic functions in vitro (FIG. 1A bottom) and was compatible with two separate high-throughput readouts developed for this screen.
The primary readout detected hepatocyte proliferation via automated high-content imaging. This assay quantified hepatocyte nuclei numbers, using nuclear morphologies to separate the hepatocyte and fibroblast subpopulations that co-exist within the screening platform. When visualized with Hoechst stain, hepatocyte nuclei were smaller and more uniform in texture while fibroblast nuclei were larger and punctated (FIG. 1A bottom). Leveraging this distinction, automated image analyses was developed that utilized machine learning algorithms to classify nuclei types and tabulate hepatocyte nuclei numbers. […] Besides quantifying hepatocyte nuclei that have completed mitosis, the number of nuclei in the process of mitosis were also quantified. Two additional analysis pipelines were built to detect nuclear morphologies consistent with cells undergoing metaphase and anaphase.
FIG. 1B top summarizes the workflow of the screen. Primary screening was done on human primary hepatocytes, preconditioned for seven days by non-parenchymal cells in the screening platform. Upon stabilization in vitro, cultures were treated with the chemical library for 48 hours. All compounds were tested in duplicates, at a single concentration of 15 μM. This single concentration was selected via a pilot screen of ˜2,000 small molecules. All 12,480 small molecules were initially tested on a single donor of cryopreserved hepatocytes (donor a) in order to eliminate noise from donor-to-donor variability. Following compound treatment, media supernatants were collected for functional analyses via ELISA and cultures were fixed in 4% paraformaldehyde for proliferation analyses via imaging.
To identify proliferation hits, three image-based readouts—one each to quantify the number of (1) hepatocyte nuclei in interphase, (2) nuclei in metaphase and (3) nuclei in anaphase—were integrated. z Scores were converted into p values, which were then used to generate ranked lists of compounds based on the efficacy and consistency of effects across the different proliferation readouts. Efficacy was assessed by the product of p values (pprod=pinter×pmeta×pana); consistency was evaluated by the maximum of p values (pmax=max(pinter, pmeta, pana). Compounds were considered proliferation hits if pprod<1×10^−6 and pmax<0.25. Functional hits were selected by an ELISA […]. Compounds with ELISA z>3.0 were eliminated as toxic. 93 compounds met all hit selection criteria, qualifying as Functional Proliferation Hits (FPH); FIG. 1B bottom illustrates the types of compounds that constituted this set of hits.

[4] = tested on: human primary hepatocytes; test: Expansion of compound-treated human primary hepatocytes (cell counts, Ki67 staining); assay type: cell-based; settings: FIG. 11A
Description: The metabolic phenotype of the treated hepatocytes was assessed for canalicular transport. […] Gene expression profiling confirmed that there was no significant differences between FPH-treated and untreated hepatocytes (FIG. 11D).
The ability of compounds 201-212, 215, 217 and 244-258 to expand human primary hepatocytes in vitro was also tested.

iHeps = test: Differentiation and maturation of iHeps (albumin/AFP ELISA, staining, CYP3A4 activity); assay type: cell-based, human
Description: Undifferentiated iPS cells were cultured on Matrigel, supported by primary mouse embryonic fibroblasts. Once confluent, iPS cells were transitioned to differentiation media, with sequential addition of growth factors (Activin A, BMP-4, bFGF, HGF, and OSM) to guide differentiation, first into endoderm, then into hepatic progenitor cells and finally into iHeps. Compound treatment started on day 21 post initiation of differentiation and acted over a period of 9 days.
Consistent with the literature, untreated cultures had islands that double stain for albumin and the fetal marker AFP, with very little presence of the mature marker […].
The ability of compounds 201-212, 217 and 244-258 to affect the differentiation of iHeps was also tested.

[5] = tested on: lfabp:GFP zebrafish embryos; test: Therapeutic window after a non-fatal dose of APAP in zebrafish embryos (liver size); assay type: in vivo; settings: 5 mM APAP for 24 hrs before 24 hour treatment
Description: The current clinical treatment for APAP toxicity is the administration of NAC, which has a limited window of efficacy. To examine the therapeutic window of FH1 and PH1 efficacy, lfabp:GFP zebrafish embryos were allowed to develop normally for 48 hrs post fertilization, and then exposed to a non-fatal dose of 5 mM APAP for 24 hrs before initiation of treatment with FH1 or PH1 for an additional 24 hour period (FIG. 10A).

[6] = tested on: iPS-derived endothelial cells; test: Differentiation of iPS-derived endothelial cells (nitric oxide); assay type: cell-based
Description: Cells were assayed for nitric oxide (NO), a mature marker for endothelial cells. CB=FPH2, M=FH1, E=PH1, while Null and DMSO are control runs with no additive and vehicle only, respectively.

[7] = tested on: transgenic lfabp:GFP zebrafish; test: Liver development in transgenic lfabp:GFP zebrafish embryos; assay type: in vivo; settings: exposure 24 to 72 hrs post fertilization
Excerpt: The effects of FH1 and PH1 on liver development were examined in transgenic lfabp:GFP zebrafish, in which GFP expression is restricted to the liver. Zebrafish embryos were allowed to develop normally for 24 hrs post fertilization and then exposed to either FH1 or PH1 until 72 hrs post fertilization (FIG. 8A). Livers were visualized by whole-mount fluorescence imaging (FIG. 8B) and lfabp in situ hybridization (FIG. 8C).

[8] = aqueous buffer, kinetic from dmso stock, read-out: Solubility Average
[9] = aqueous buffer, kinetic from dmso stock, read-out: Solubility Rep1
[10] = aqueous buffer, kinetic from dmso stock, read-out: Solubility Rep2
[11] = aqueous buffer, kinetic from dmso stock, read-out: Solubility Rep3

Compound	Protein binding Average (Protein binding - Human)	Protein binding Rep1 (Protein binding - Human)	Protein binding Rep2 (Protein binding - Human)	solubility [1, 8]	solubility [1, 9]	solubility [1, 10]	solubility [1, 11]	Microsomal stability Rep1 [2]	Microsomal stability Rep2 [2]	Microsomal stability No NADPH [2]	Microsomal stability Average [2]	Plasma stability Average (Plasma stability - Human)	also measured
CCCCOc1cc(CC2CNC(=O)N2)ccc1OC (stereo not drawn) [BRD-A07207424-001-04-1]	75.6 % bound	76.2 % bound	75.0 % bound	> 100 µM	112 µM (≈ 31.2 µg/mL)	114 µM (≈ 31.7 µg/mL)	104 µM (≈ 28.9 µg/mL)	81.5 % remaining	85.5 % remaining	100.3 % remaining	83.5 % remaining	105.9 % remaining	–
CC(=O)Nc1ccc(Cc2ccc(NC(C)=O)cc2)cc1 [BRD-K44777625-001-01-9]	91.0 % bound	91.0 % bound	91.0 % bound	40 µM (≈ 11.3 µg/mL)	45 µM (≈ 12.7 µg/mL)	39 µM (≈ 11 µg/mL)	36 µM (≈ 10.2 µg/mL)	71 % remaining	66.7 % remaining	63 % remaining	68.9 % remaining	100.6 % remaining	–
Cc1ccc(Cl)cc1N(CC(=O)N(S)c1c(F)cccc1F)S(C)(=O)=O [BRD-K61250484-001-01-5]	91.2 % bound	90.9 % bound	91.6 % bound	23 µM (≈ 9.68 µg/mL)	23 µM (≈ 9.68 µg/mL)	22 µM (≈ 9.26 µg/mL)	26 µM (≈ 10.9 µg/mL)	4.2 % remaining	4.5 % remaining	110.6 % remaining	4.4 % remaining	101.4 % remaining	–
CCn1cc(NC(=S)Nc2cc(Cl)ccc2OC)c(C(N)=O)n1 [BRD-K94248251]	95.8 % bound	95.7 % bound	95.9 % bound	20 µM (≈ 7.08 µg/mL)	23 µM (≈ 8.14 µg/mL)	16 µM (≈ 5.66 µg/mL)	21 µM (≈ 7.43 µg/mL)	41.7 % remaining	39.4 % remaining	123.1 % remaining	40.6 % remaining	63.9 % remaining	–
Clc1ccccc1C(c1ccccc1)(c1ccccc1)n1ccnc1 [Clotrimazole, reference compound]	–	–	–	2.2 µM (≈ 0.759 µg/mL)	–	1.9 µM (≈ 0.655 µg/mL)	3.1 µM (≈ 1.07 µg/mL)	–	–	–	–	–	solubility ([1]; read-out: Solubility Average): 2.6 µM (≈ 0.897 µg/mL); solubility ([1]; read-out: Solubility Rep2): 2.1 µM (≈ 0.724 µg/mL); solubility ([1]; read-out: Solubility Rep3): 2.0 µM (≈ 0.69 µg/mL)
CSc1ccccc1NC(=O)CN(c1cc(Cl)ccc1C)S(C)(=O)=O [Compound 102, 2-(N-(5-chloro-2-methylphenyl)methylsulfonamido)-N-(2-(methylthio)phenyl)acetamide]	–	–	–	–	–	–	–	–	–	–	–	–	proliferation Z score (hepatocyte nuclei count) [3]: 2.24; hit class in the high-throughput liver platform [3]: proliferation-only hit
C[C@H](CO)N1C[C@H](C)[C@H](CN(C)C(=O)Nc2ccc(F)cc2)Oc2ncc(-c3cc4ccccc4o3)cc2C1=O [Compound 106, 1-(((2R,3S)-8-(benzofuran-2-yl)-5-((R)-1-hydroxypropan-2-yl)-3-methyl-6-oxo-3,4,5,6-tetrahydro-2H-pyrido[2,3-b][1,5]oxazocin-2-yl)methyl)-3-(4-fluorophenyl)-1-methylurea]	99.3 % bound	99.3 % bound	99.3 % bound	25 µM (≈ 13.7 µg/mL)	23 µM (≈ 12.6 µg/mL)	28 µM (≈ 15.3 µg/mL)	24 µM (≈ 13.1 µg/mL)	53.9 % remaining	58.1 % remaining	104.2 % remaining	56.0 % remaining	98.0 % remaining	proliferation of hepatocytes [4]: induced proliferation; albumin staining (immunofluorescent) (iHeps): dramatic increases; hepatocyte phenotype of treated iHeps (iHeps): more mature hepatocyte phenotypes; AFP secretion (ELISA) (iHeps; treatment from day 21, 9 days): decreased; albumin secretion (ELISA) (iHeps; treatment from day 21, 9 days): increased
CC1CC(OC(=O)C(O)c2ccccc2)CC(C)(C)N1C (stereo not drawn) [Eucatropine, reference compound]	–	–	–	–	–	–	–	–	–	–	–	0.5 % remaining and 0.4 % remaining	–
CCCCC[C@H](O)/C=C/[C@H]1[C@H](O)CC(=O)[C@@H]1C/C=C\CCCC(=O)O [PGE2, Prostaglandin E2, reference compound]	–	–	–	–	–	–	–	–	–	–	–	–	hit class in the high-throughput liver platform [3]: FPH
CCCCOc1cc(CC2CNC(=O)N2)ccc1OC (stereo not drawn) [PH1, 4-(3-butoxy-4-methoxybenzyl)imidazolidin-2-one]	–	–	–	–	–	–	–	–	–	–	–	–	embryonic liver size / liver mass after APAP compared to controls [5]: mitigated APAP-induced loss of liver mass; differentiation of iPS-derived endothelial cells (nitric oxide) [6]: induce differentiation; liver size compared to DMSO-treated controls [7]: increased
